US12263248B2, “Compounds and compositions for intracellular delivery of therapeutic agents” (ModernaTX, Inc., priority 2018, dated 2025)

What was measured:
[1] = Particle size and polydispersity index of nanoparticle compositions (Zetasizer Nano ZS); format: physicochemical
Summary of the method: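 Values are size and PDI readings from a Zetasizer Nano ZS. Measurements are taken in 1×PBS; zeta potential, by contrast, uses 15 mM PBS.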

[2] = Encapsulation efficiency of RNA (QUANT-IT RIBOGREEN RNA assay); format: physicochemical; details: for EE (%): Table 1A
Summary of the method: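 RiboGreen fluorescence (ex ~480, em ~520 nm) compared between intact samples and Triton X-100-lysed samples after 15 min at 37 °C in TE buffer, pH 7.5. Percent free RNA is the blank-corrected intact/disrupted ratio.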

[3] = Apparent (surface) pKa of the LNP formulation (TNS assay); format: physicochemical; details: for pKa: Table 1A
Summary of the method: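 Fluorescence of TNS probe added to LNP samples (mRNA 0.04 mg/mL) was read across 21 buffers of pH about 3-12, triplicate per pH. The inflection point of the sigmoidal fluorescence-vs-pH curve, […], gives apparent pKa; method validated in 1× PBS and Tris/sucrose buffer.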

luciferase (Luc) mRNA [4] = assay: Luc expression, whole body bioluminescence after intravenous administration to mice; format: in vivo; details: for 6 h BLI Lipid/MC3: Table 3E; for 6 h BLI Lipid/MC3 / Lipid/MC3 AUC / AUC (p/s * h) / Novel lipid/MC3 ratio, 6 hr. timepoint, i.v.: intravenous; for Lipid/MC3 AUC / AUC (p/s * h): Table 3D; for AUC (p/s * h): Luc; for Novel lipid/MC3 ratio, 6 hr. timepoint, i.v.: luciferase, relative to MC3, Table 3G; for Total Flux 3 hours / Total Flux 6 hours / Total Flux 24 hours: mice, i.v., 0.5 mg/kg, Luc mRNA
Summary of the method: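 Bioluminescence, read as region-of-interest total flux at 3, 6 and 24 h, followed a single 0.5 mg/kg intravenous dose of Luc mRNA-loaded nanoparticles in mice (n=6). Luciferin substrate (200 μL, 15 mg/mL in PBS) was injected intraperitoneally into CD-1 mice 15 minutes ahead of each imaging point.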

[5] = Lipid clearance: lipid level in mouse liver tissue (LC-MS/MS); format: in vivo; details: for % Remaining dose at 6 h / % Remaining dose at 24 h: Table 3E, mouse liver; for % Dose Remaining in Liver 6 h: Table 3D, intravenous
hEPO mRNA = assay: hEPO expression after subcutaneous administration to mice; format: in vivo, female CD-1 mice; details: for hEPO expression Lipid/Compound 18 ratio, 6 hr. / hEPO expression Lipid/Compound 18 ratio, AUC: 0.5 mpk; for Novel lipid/MC3 expression ratio, 6 hr. time point, s.c. hEPO 0.5 mpk: relative to MC3
Method: (§1) The effect of the lipids of the disclosure on protein expression upon subcutaneous administration was studied. Formulations containing lipids of the disclosure and an mRNA expressing luciferase or hEPO were administered subcutaneously to female CD-1 mice at 0.5 mpk. Expression levels were obtained via whole body luminescent imaging (BLI) at 3, 6 and 24 hours after injection and expression levels in liver, spleen and at the injection site were evaluated ex vivo after 24 hours. […] See also Tables 35 and 36, and FIGS. 19 and 27.
Table 36 summarizes the hEPO expression levels using various nanoparticle compositions of the disclosure as compared to the hEPO expression level using a formulation containing MC3 or Compound 18, following subcutaneous administration, as described above.

luciferase (Luc) mRNA [6] = assay: Luc expression in liver, lung, spleen and femur 6 hours after intravenous administration; format: in vivo; details: mice, 0.5 mpk; for Total Flux Liver / Total Flux Lung / Total Flux Spleen: intravenous
Summary of the method: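 LNP-formulated mRNA given IV to mice (n=3) at 0.5 mpk; at 6 h, bioluminescence imaged ex vivo 15 min after IP D-luciferin (15 mg/mL, 200 μL), organs imaged within 25 min. Values are total flux by region of interest.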

luciferase (Luc) mRNA [7] = assay: Luc expression (total flux) after intramuscular administration; format: in vivo, mice
Summary of the method: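 Total-flux luciferase signal in mice after one intramuscular injection. Nanoparticle formulations contained modified Luc mRNA, either alone or co-dosed with H10 mRNA (e.g., 0.0005 or 0.005 mpk of each), giving 0.001 or 0.01 mpk.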

luciferase mRNA = assay: Luciferase expression after subcutaneous administration to mice; format: in vivo, female CD-1 mice; details: 0.5 mpk, relative to MC3
Method: as §1
Table 35 summarizes the luciferase expression levels using various nanoparticle compositions of the disclosure, and the luciferase expression levels using various nanoparticle compositions of the disclosure as compared to the luciferase expression level using an MC3 formulation after subcutaneous administration, as described above.

[8] = Table 1A, lipid:DSPC:cholesterol:PEG-DMG 50:10:38.5:1.5 mol %
[9] = Table 1D, for subcutaneous administration, # formulated with hEPO mRNA
[10] = second column (head also says 6 h)
[11] = Table 1E, compositions for subcutaneous administration

SMILES | PDI ([1]; Table 1A) | Size (nm) [1, 8] [nm] | PDI [1, 9] | Size (nm) [1, 9] [nm] | EE (%) [2] [%] | % EE [2, 9] [%] | pKa [3] | % Remaining dose at 6 h [5] [%] | % Remaining dose at 24 h [5] [%] | 6 h BLI Lipid/MC3 (luciferase (Luc) mRNA [4]) | hEPO expression Lipid/Compound 18 ratio, 6 hr. (hEPO mRNA) | hEPO expression Lipid/Compound 18 ratio, AUC (hEPO mRNA) | further results
CCCCCCCCCOC(=O)CCCCCCCN(CCCCCCCC(=O)OC(CCCCCCCC)CCCCCCCC)CCCNC(=N)N [Compound 207, Heptadecan-9-yl 8-((3-guanidinopropyl)(8-(nonyloxy)-8-oxooctyl)amino)octanoate] |  |  | 0.22 | 81.4 |  | 102 |  |  |  |  |  |  | Novel lipid/MC3 expression ratio, 6 hr. time point, s.c. hEPO 0.5 mpk (hEPO mRNA): 0
CCCCCCCCCOC(=O)CCCCCCCN(CCCCCCCC(=O)OC(CCCCCCCC)CCCCCCCC)CCCN/C(=N/C#N)N(C)C [Compound 168, Heptadecan-9-yl (Z)-8-((3-(2-cyano-3,3-dimethylguanidino)propyl)(8-(nonyloxy)-8-oxooctyl)amino)octanoate] | 0.20 | 102.3 | 0.07 | 87.4 | 91.4 | 96.1 | 6.74 |  |  |  |  |  | PDI [1, 11]: 0.08; Size (nm) [1, 11]: 85.0 nm; % EE [2, 11]: 95%; App. pKa ([3]; Table 3F): 6.90; i.m. Lipid/MC3 0.01 mpk, Luc, 6 h (luciferase (Luc) mRNA [7]; Table 3B, i.m., 0.01 mpk, 6 h): 16.0; flux measured at 6 h relative to the MC3 formulation (luciferase (Luc) mRNA [7]; intramuscular administration (i.m.), in words): sixteen; Novel lipid/MC3 expression ratio, 6 hr. time point, s.c. Luc 0.5 mpk (luciferase mRNA): 0.58; Novel lipid/MC3 expression ratio, 6 hr. time point, s.c. hEPO 0.5 mpk (hEPO mRNA): 2.36
CCCCCCCCCC(=O)OCCCCCCCN(CCO)CCCCCCCC(=O)OC(CCCCCCCC)CCCCCCCC [Compound 96, 7-((8-(Heptadecan-9-yloxy)-8-oxooctyl)(2-hydroxyethyl)amino)heptyl decanoate] | 0.160 | 120.5 | 0.14 | 82.6 | 79.04 | 94.4 | 6.600 |  |  |  | 1.98 | 1.72 | Lipid/MC3 AUC (luciferase (Luc) mRNA [4]): 6.3; AUC (p/s * h) (luciferase (Luc) mRNA [4]): 1.209E+012 p/s * h; Novel lipid/MC3 ratio, 6 hr. timepoint, i.v. (luciferase (Luc) mRNA [4]): 6.11; Total Flux 3 hours (luciferase (Luc) mRNA [4]): 4.54E+10; Total Flux 6 hours (luciferase (Luc) mRNA [4]): 1.05E+11; Total Flux 24 hours (luciferase (Luc) mRNA [4]): 3.86E+09; % Dose Remaining in Liver 6 h [5, 10]: <1%; % Dose Remaining in Liver 6 h [5]: <1%; Flux in the liver (luciferase (Luc) mRNA [6]; i.v., in words): highest; Total Flux Liver (luciferase (Luc) mRNA [6]): 1.56E+10; Total Flux Lung (luciferase (Luc) mRNA [6]): 3.43E+07; Total Flux Spleen (luciferase (Luc) mRNA [6]): 3.39E+08
CCCCCCCCCC(=O)OC(C)CCCCCCN(CCO)CCCCCCCC(=O)OC(CCCCCCCC)CCCCCCCC (centres unmarked) [Compound 98, 8-((8-(Heptadecan-9-yloxy)-8-oxooctyl)(2-hydroxyethyl)amino)octan-2-yl decanoate] |  |  | 0.14 | 74.8 | 94.4 | 93.8 | 6.53 | 26.8 | 14.7 | 3.16 | 0.69 | 0.69 | 

Second part, led by results:

PDI ([1]; Table 1A) | Size (nm) [1, 8] [nm] | PDI [1, 9] | Size (nm) [1, 9] [nm] | EE (%) [2] [%] | % EE [2, 9] [%] | pKa [3] | % Remaining dose at 6 h [5] [%] | % Remaining dose at 24 h [5] [%] | SMILES | 6 h BLI Lipid/MC3 (luciferase (Luc) mRNA [4]) | hEPO expression Lipid/Compound 18 ratio, 6 hr. (hEPO mRNA) | hEPO expression Lipid/Compound 18 ratio, AUC (hEPO mRNA) | further results
0.14 | 84.6 | 0.14 | 74.3 | 92.9 | 93.5 | 6.50 | 29.1 | 12.7 | CCCCCCCCCC(=O)OC(C)CCCCCCN(CCO)CCCCCCCOC(=O)C(CCCCCCCC)CCCCCCCC (centres unmarked) [Compound 165, 7-((7-(Decanoyloxy)octyl)(2-hydroxyethyl)amino)heptyl 2-octyldecanoate] | 2.12 | 0.63 | 0.64 | 
0.10 | 88.3 | 0.10 | 78.0 | 93.2 | 92.8 | 6.41 | 34.8 | 19.4 | CCCCCCCCCOC(=O)C(C)CCCCCCN(CCO)CCCCCCCOC(=O)C(CCCCCCCC)CCCCCCCC (centres unmarked) [Compound 163, 7-((2-Hydroxyethyl)(7-methyl-8-(nonyloxy)-8-oxooctyl)amino)heptyl 2-octyldecanoate] | 3.45 | 0.99 | 0.96 | 
0.140 | 105.7 | 0.13 | 77.6 | 87.86 | 95.4 | 6.593 |  |  | CCCCCCCCCC(=O)OCCCCCCCN(CCO)CCCCCCCOC(=O)C(CCCCCCCC)CCCCCCCC [Compound 151, 7-((7-(Decanoyloxy)heptyl)(2-hydroxyethyl)amino)heptyl 2-octyldecanoate] |  | 0.73 | 0.71 | Apparent pKa ([3]; Table 3G): 6.59; Lipid/MC3 AUC (luciferase (Luc) mRNA [4]): 3.7; AUC (p/s * h) (luciferase (Luc) mRNA [4]): 7.010E+011 p/s * h; Novel lipid/MC3 ratio, 6 hr. timepoint, i.v. (luciferase (Luc) mRNA [4]): 3.29; Total Flux 3 hours (luciferase (Luc) mRNA [4]): 5.63E+10; Total Flux 6 hours (luciferase (Luc) mRNA [4]): 5.68E+10; Total Flux 24 hours (luciferase (Luc) mRNA [4]): 2.23E+09; % Dose Remaining in Liver 6 h [5, 10]: <1%; % Dose Remaining in Liver 6 h [5]: <1%; Total Flux Liver (luciferase (Luc) mRNA [6]): 4.72E+09; Total Flux Lung (luciferase (Luc) mRNA [6]): 9.20E+06; Total Flux Spleen (luciferase (Luc) mRNA [6]): 9.27E+07
0.13 | 84.5 | 0.08 | 75.7 | 91.2 | 94.1 | 6.39 | 39.0 | 26.2 | CCCCCCCCCOC(=O)C(C)CCCCCCN(CCO)CCCCCCCC(=O)OC(CCCCCCCC)CCCCCCCC (centres unmarked) [Compound 164, Nonyl 8-((8-(heptadecan-9-yloxy)-8-oxooctyl)(2-hydroxyethyl)amino)-2-methyloctanoate] | 1.24 | 0.50 | 0.56 | 
